Reference: patent US11220503B2, “Phthalazine derivatives, preparation method, pharmaceutical composition and usage thereof” (Shanghai SIMR Biotech Co., Ltd., priority 2015, dated 2022)

Target: T1, α5β3γ2 receptor (Homo sapiens, UniProt P18507+P31644)
T1 construct: expressed in transfected cells; host or cells: HEK-293 (stably transfected)
Test: Supplementary data for cell level screening: new electrophysiology method (I. Lecker et al)
Format: cell-based
Details: for Inverse agonism efficacy(%): new method, CsCl intracellular solution, GABA 0.1˜0.3 CM, other procedures as previous method; for inverse agonism efficacy of the compound/α5IA inverse agonism efficacy: ratio to the α5IA reference run above in the table (r4 or r29)
Procedure: The inventors used electrophysiological methods to assay the inverse agonist efficacy of the substance to be tested. The detailed procedures are as follows: (1) Different subunits of GABAA receptors were expressed in human embryonic kidney cells 293 (HEK293). The cells were cultured in a culture medium and used as a cell model for screening potential analgesics. The α, β and γ subunits are necessary to form complete functional GABAA receptors. In this example, the inventor has established the following cell model: (a) α5 subunit (protein sequence is GenBank accession number: NP_001158509), β3 subunit (protein sequence is GenBank accession number: NP_068712) and γ2 subunit (protein sequence is GenBank accession number: NP_944494) were expressed in HEK-293 cell lines at the same time, which formed the complete functional GABAA receptors. (2) Cells were stably transfected HEK-293 cells expressing α5β3γ2 receptor, which were labeled by green fluorescent protein (GFP). Cells were grown in 10 cm dishes. The cells were passaged after reaching 80-90% confluence. During passaging, the culture medium was removed and discarded, 3 mL DMEM medium (Gibco™) was added to the dishes, the dishes were shaken slightly, and DMEM was removed and discarded. 3 mL Trypsin (Trypsin-EDTA 0.05%, Gibco™) was added and cells were digested at 37° C. for 3 minutes. Then 3 mL complete growth medium (DMEM+10% horse serum (Gibco™)) was added and the cells at the bottom of the culture dishes were dispersed. The cell suspension were transferred to a 15 mL centrifugal tube (Corning®) and then centrifuged at 200 g for 3 minutes. The supernatant was discarded, 4 mL complete growth medium was added, and the cells were resuspended by gently blowing. The cell suspension was diluted by 1:5 or 1:10 for subculturing. The cell suspension was diluted by 1:12 for electrophysiology experiment, which are added to the 24 well plate (Corning®) which has a glass slide pre-treated with poly-D-lysine. The cells were adhered to the slide before the experiment was conducted. The cells were maintained in culture for no more than 24 hours before use. (3) Compound concentration: for screening, all compounds were diluted to a final concentration of 100 nM. […] The compounds were at the concentration of 1 nM, 10 nM, 50 nM, 100 nM and 1000 nM in dose-inverse agonism efficacy (%) experiment. The whole cell patch clamp technique was used in electrophysiology experiments. The extracellular solution (ECS) contained: 150 mM NaCl, 5 mM KCl, 2.5 mM CaCl2, 1 mM MgCl2, 10 mM HEPES and 10 mM glucose (pH 7.4); […], 5 mM EGTA, 10 mM HEPES ([…] water). The currents were recorded by an EPC-10 amplifier and the PatchMaster software (HEKA). Patch electrodes with a resistance of 5-6 MΩ were pulled from borosilicate glass (Sutter). The diluted compounds were perfused by OCTAFLOWII system. GFP positive and independently growing cells were selected for recording. During recording, the membrane voltage was clamped at −60 mV. During experiment, the cells were firstly perfused with ECS for 20 seconds. When the baseline reached to a stable state, cells were then perfused with GABA solution. Then the current induced by GABA can be detected. After about 20-40 seconds, the current was stable. ECS was switched to compounds solution and the effects of the compounds were detected. At last, the perfusion solution was switched to ECS. The experiment was finished when the post-baseline returned to the pre-baseline before compounds perfusion. Only the data whose pre-baseline and post-baseline are at almost the same level were used for analysis. […] Then, compounds were diluted at the desired concentration in GABA ECS. (4) Currents were analyzed with the PatchMaster (HEKA) software. The GABA currents before (Ipre) and after (Ipost) compounds perfusion were recorded respectively. The efficacies of compounds were calculated by the following equation: inverse agonism efficacy=(Ipost-Ipre)*100/Ipre. N indicates experiment numbers. […]

T1 sequence (P31644 32-462): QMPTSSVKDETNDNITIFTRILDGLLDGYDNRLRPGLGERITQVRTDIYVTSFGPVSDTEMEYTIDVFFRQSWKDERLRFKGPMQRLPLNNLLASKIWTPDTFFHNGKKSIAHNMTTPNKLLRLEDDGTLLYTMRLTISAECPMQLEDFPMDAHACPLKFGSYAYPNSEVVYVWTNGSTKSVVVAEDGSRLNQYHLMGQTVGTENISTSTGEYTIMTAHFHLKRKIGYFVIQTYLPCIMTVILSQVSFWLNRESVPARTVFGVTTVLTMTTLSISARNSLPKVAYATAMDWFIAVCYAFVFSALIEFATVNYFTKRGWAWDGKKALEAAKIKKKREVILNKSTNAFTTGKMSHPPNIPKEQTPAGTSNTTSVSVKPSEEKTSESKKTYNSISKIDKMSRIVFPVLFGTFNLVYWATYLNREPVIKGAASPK
T1 sequence (P28472 26-473 isoform P28472-2 partner limits assumed): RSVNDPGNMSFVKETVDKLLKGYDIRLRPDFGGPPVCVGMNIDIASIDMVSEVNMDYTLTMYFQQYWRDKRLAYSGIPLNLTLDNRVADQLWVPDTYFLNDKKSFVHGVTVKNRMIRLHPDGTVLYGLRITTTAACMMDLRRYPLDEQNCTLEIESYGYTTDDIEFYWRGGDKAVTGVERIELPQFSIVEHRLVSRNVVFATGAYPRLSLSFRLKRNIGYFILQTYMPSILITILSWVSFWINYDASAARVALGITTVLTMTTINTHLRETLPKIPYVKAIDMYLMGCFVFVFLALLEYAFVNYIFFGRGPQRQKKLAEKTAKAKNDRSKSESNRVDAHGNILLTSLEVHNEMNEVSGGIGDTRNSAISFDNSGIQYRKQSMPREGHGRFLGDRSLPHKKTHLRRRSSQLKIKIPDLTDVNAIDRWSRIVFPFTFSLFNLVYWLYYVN
T1 sequence (P18507 40-475): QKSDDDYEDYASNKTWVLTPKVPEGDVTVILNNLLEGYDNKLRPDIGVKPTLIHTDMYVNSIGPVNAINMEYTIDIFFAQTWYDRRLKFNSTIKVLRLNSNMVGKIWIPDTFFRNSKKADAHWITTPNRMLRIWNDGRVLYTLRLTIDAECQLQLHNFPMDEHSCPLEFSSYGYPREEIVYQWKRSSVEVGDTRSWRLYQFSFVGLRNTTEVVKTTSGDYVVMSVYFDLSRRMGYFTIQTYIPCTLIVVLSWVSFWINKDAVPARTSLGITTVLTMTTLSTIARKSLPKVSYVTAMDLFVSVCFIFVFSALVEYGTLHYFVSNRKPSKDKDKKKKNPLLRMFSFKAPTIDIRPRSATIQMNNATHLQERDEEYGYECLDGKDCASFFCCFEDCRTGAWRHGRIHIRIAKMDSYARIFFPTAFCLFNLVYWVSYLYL

Inverse agonism efficacy(%) | inverse agonism efficacy of the compound/α5IA inverse agonism efficacy | SMILES
−26.5% | 1.526 | Cc1cc(-c2nnc3c4ccccc4c(OCc4ccc(C(=O)NC5CC5)cn4)nn23)no1 [Compound 04, N-cyclopropyl-6-(((3-(5-methylisoxazol-3-yl)-[1,2,4]triazolo[3,4-a]phthalazin-6-yl)oxy)methyl) nicotinamide]
−17.71% | 1.020 | Cc1cc(-c2nnc3c4ccccc4c(OCc4ccc(C(=O)NC5CCN(C)CC5)cn4)nn23)no1 [Compound 11, 6-(((3-(5-methylisoxazol-3-yl)-[1,2,4]triazolo[3,4-a]phthalazin-6-yl)oxy)methyl)-N-(1-methylpiperidin-4-yl)nicotinamide]
−19.0625% | 1.098 | Cc1cc(-c2nnc3c4ccccc4c(OCc4ccc(C(=O)NCCN5CCOCC5)cn4)nn23)no1 [Compound 12, 6-(((3-(5-methylisoxazol-3-yl)-[1,2,4]triazolo[3,4-a]phthalazin-6-yl)oxy)methyl)-N-(2-morpholinoethyl)nicotinamide]
−33% | 1.774 | COC1CCN(C(=O)c2ccc(COc3nn4c(-c5cc(C)on5)nnc4c4ccccc34)nc2)CC1 [Compound 22, (4-methoxypiperidin-1-yl)(6-(((3-(5-methylisoxazol-3-yl)-[1,2,4]triazolo[3,4-a]phthalazin-6-yl)oxy)methyl)pyridin-3-yl)methanone]
−21.5% | 1.238 | Cc1cc(-c2nnc3c4ccccc4c(OCc4ccc(C(=O)NCC5CCCO5)cn4)nn23)no1 (centres unmarked) [Compound 26, 6-(((3-(5-methylisoxazol-3-yl)-[1,2,4]triazolo[3,4-a]phthalazin-6-yl)oxy)methyl)-N-((tetrahydrofuran-2-yl)methyl)nicotinamide]
−32.1% | 1.726 | Cc1cc(-c2nnc3c4ccccc4c(OCc4ccc(C(=O)NCCS(C)(=O)=O)cn4)nn23)no1 [Compound 27, 6-(((3-(5-methylisoxazol-3-yl)-[1,2,4]triazolo[3,4-a]phthalazin-6-yl)oxy)methyl)-N-(2-(methylsulfonyl)ethyl)nicotinamide]
−19.86% | 1.143 | Cc1cc(-c2nnc3c4ccccc4c(OCc4ccc(C(N)=O)cn4)nn23)no1 [Compound 28, 6-(((3-(5-methylisoxazol-3-yl)-[1,2,4]triazolo[3,4-a]phthalazin-6-yl)oxy)methyl)nicotinamide]
−52% | 2.796 | Cc1cc(-c2nnc3c4ccccc4c(OCc4ccc(C(=O)NCC(F)(F)F)cn4)nn23)no1 [Compound 30, 6-(((3-(5-methylisoxazol-3-yl)-[1,2,4]triazolo[3,4-a]phthalazin-6-yl)oxy)methyl)-N-(2,2,2-trifluoroethyl)nicotinamide]
−28.8% | 1.658 | O=C(NC1CC1)c1ccc(COc2nn3c(-c4cc(CO)on4)nnc3c3ccccc23)nc1 [Compound 36, N-cyclopropyl-6-(((3-(5-(hydroxymethyl)isoxazol-3-yl)-[1,2,4]triazolo[3,4-a]phthalazin-6-yl)oxy)methyl)nicotinamide]
−32.5% | 1.871 | O=C(NCC(F)(F)F)c1ccc(COc2nn3c(-c4cc(CO)on4)nnc3c3ccccc23)nc1 [Compound 42, 6-(((3-(5-(hydroxymethyl)isoxazol-3-yl)-[1,2,4]triazolo[3,4-a]phthalazin-6-yl)oxy)methyl)-N-(2,2,2-trifluoroethyl)nicotinamide]
